Consider 1 compound from publication PMC3506555, “[^11C]phenytoin revisited: synthesis by [^11C]CO carbonylation and first evaluation as a P-gp tracer in rats” (EJNMMI Research, 2012).

SMILES strings stand for the structures. “And” between values parts separate entries of the source, which are not always exact repeats. Equal entries are not always repeated.

Assay type in all cases: in vivo, Sprague–Dawley rats
Data set [1] can be described thus: Metabolite analysis in brain tissue after i.v. [11C]phenytoin. Conditions: rat brain, N = 2. How it is done: Chemicals were obtained from Sigma Aldrich (St. Louis, MO, USA) and were used without further purification. All reactions were carried out under an argon atmosphere unless stated otherwise. [^11C]CO2 was produced using an IBA Cyclone 18/9 cyclotron (IBA, Louvain-La-Neuve, Belgium) by the ^14N(p,α)^11C nuclear reaction performed in a 0.5% O2/N2 gas mixture. Water was purified over a Millipore filter (Millipore, Leiden, The Netherlands). The silica gel used as stationary phase for flash column chromatography was grade 9385, 230 to 400 mesh, 60 Å and obtained from Sigma Aldrich. Chemical shifts (δ) of nuclear magnetic resonance (NMR) spectra were defined relative to the signal of the solvent (7.26 for CDCl3 and 2.50 for DMSO-d6) and measured on a Bruker Avance 250 (Bruker, Billerica, MA, USA), with δ reported in parts per million relative to the solvent. Infrared (IR) spectra were obtained using a Shimadzu FTIR-8400 S (Shimadzu, Kyoto, Japan), and wavelengths (ν) are reported in per centimeter and (s), (m) and (w), indicating strong, moderate and weak signal, respectively. […]
To study the metabolic profile of [^11C]phenytoin in the plasma and brain, five male Sprague–Dawley rats were injected with 150 to 250 MBq [^11C]phenytoin in the tail vein under isoflurane anesthesia. […] This eluate was defined as the nonpolar fraction and was analyzed using HPLC method C. […]

A short description of data set [2]: Metabolite analysis in plasma after i.v. [11C]phenytoin. As to conditions: for Percentage of intact [11C]phenytoin, plasma: rat plasma, N = 2. On the procedure:
Chemicals were obtained from Sigma Aldrich (St. Louis, MO, USA) and were used without further purification. All reactions were carried out under an argon atmosphere unless stated otherwise. [^11C]CO2 was produced using an IBA Cyclone 18/9 cyclotron (IBA, Louvain-La-Neuve, Belgium) by the ^14N(p,α)^11C nuclear reaction performed in a 0.5% O2/N2 gas mixture. Water was purified over a Millipore filter (Millipore, Leiden, The Netherlands). The silica gel used as stationary phase for flash column chromatography was grade 9385, 230 to 400 mesh, 60 Å and obtained from Sigma Aldrich. Chemical shifts (δ) of nuclear magnetic resonance (NMR) spectra were defined relative to the signal of the solvent (7.26 for CDCl3 and 2.50 for DMSO-d6) and measured on a Bruker Avance 250 (Bruker, Billerica, MA, USA), with δ reported in parts per million relative to the solvent. Infrared (IR) spectra were obtained using a Shimadzu FTIR-8400 S (Shimadzu, Kyoto, Japan), and wavelengths (ν) are reported in per centimeter and (s), (m) and (w), indicating strong, moderate and weak signal, respectively. Electrospray ionization high-resolution mass spectrometry (ESI-HRMS) was carried out using a Bruker microTOF-Q instrument in positive ion mode (capillary potential of 4.500 V); electrospray ionization mass spectrometry was carried out using an AB Sciex Qtrap 5500 LC-MS/MS instrument (AB Sciex, Foster City, CA, USA) in negative ion mode. Semi-preparative high performance liquid chromatography (HPLC) was performed on an ACE 5-μM C18, 250*10-mm column (Alltech, Nicholasville, KY, USA) using the following settings: wavelength 230 nm, eluent MeCN/H2O/TFA 60/40/0.15 (v/v/v) and flow 4 mL·min^−1 (method A). Analytical HPLC was performed on a Kromasil 100 C18 10-μM (4.6 to 250 mm) column (Grace Alltech, Breda, The Netherlands) with the following settings: wavelength 230 nm, eluent acetonitrile/water/[…] 75/25/0.2 (v/v/v) and flow 1 mL·min^−1 (method B). Metabolite analysis was performed on a Gemini C18 5-μm (10 to 250 mm) column (Phenomenex, Torrance, CA, USA) (method C) with gradient and a mixture of (A) acetonitrile and (B) 0.1% trifluoro acetic acid in H2O as eluent according to the following scheme: 0 min, 90% B at 0.25 mL·min^−1; 0.5 min, 20% B at 4 mL·min^−1; 9.0 min, 30% B at 4 mL·min^−1; 13 min, 30% B at 4 mL·min^−1; 14.0 min, 90% B at 4.0 mL·min^−1 and 15 min, 90% B at 0.25 mL·min^−1. Tetrahydrofuran (THF), which was used during experiments, was distilled over LiAlH4 just prior to the experiments unless stated otherwise.
To study the metabolic profile of [^11C]phenytoin in the plasma and brain, five male Sprague–Dawley rats were injected with 150 to 250 MBq [^11C]phenytoin in the tail vein under isoflurane anesthesia. Three of these animals were pretreated with 15 mg·kg^−1 tariquidar 20 min prior to [^11C]phenytoin administration. Three arterial blood samples of 0.5, 0.8 and 1.2 mL were withdrawn at 10, 30 and 45 min or at 5, 15 and 25 min after [^11C]phenytoin injection, respectively. Immediately following the last blood sample, the rats were euthanized, and the brain was isolated. All blood samples were collected in heparin tubes and centrifuged at 4.000 rpm for 5 min at 4°C (Hettich Universal 16, Depex B.V., The Netherlands). Plasma was separated from blood cells and, between 0.3 and 0.7 mL, was loaded onto a tC-18 Sep-Pak (Waters, The Netherlands) and washed with 20 mL of water. The eluate was defined as the polar radiolabeled metabolite fraction. Thereafter, the tC-18 Sep-Pak was eluted with 1.5 ml of methanol. This eluate was defined as the nonpolar fraction and was analyzed using HPLC method C. Brain tissue was homogenized with an ultrasonic homogenizer (Braunsonic 1510, Kronberg, Germany) in water, under ice cooling, and subsequently centrifuged at 4,000 rpm for 5 min at 4°C. Separated supernatants were loaded onto a tC-18 Sep-Pak and washed with 20 mL water to obtain the polar fraction.

Data set [3] is described as follows: Arterial plasma radioactivity concentration during PET scans. How it is done: For animals that underwent three scans, the amount of blood withdrawn was reduced by replacing the two samples at 15 and 30 min with a single 20-min sample. […] Standardized uptake values (SUVs) as a function of time were derived by normalizing measured radioactivity concentrations against injected dose and body weight.

`O=C1N[11C](=O)NC1(c1ccccc1)c1ccccc1` [[^11C]phenytoin]: the “Percentage of intact [11C]phenytoin, brain” value in data set [1] (25 min after injection) was 95 ± 1%; in data set [1] (45 min after injection) it was 83% and 83 ± 5%. Moreover, the “Percentage of intact [11C]phenytoin, plasma” value is 60 ± 7% in data set [2] (5 min after injection); 50 ± 16% in data set [2] (10 min after injection); 38 ± 3% in data set [2] (15 min after injection); 28 ± 2% in data set [2] (25 min after injection); 32 ± 18% in data set [2] (30 min after injection); 19% and 19 ± 8% in data set [2] (45 min after injection). Also, in data set [2] (tariquidar 15 mg·kg^−1, 20 min prior to tracer), the “Metabolism in tariquidar-treated versus untreated rats” value is “no difference in metabolism”. For the same compound, in data set [3] (initial part of scan), the “Initial plasma concentrations after tariquidar treatment versus baseline” value is “somewhat lower than at baseline”. In addition, the “Plasma concentrations after tariquidar treatment versus baseline” value in data set [3] (towards the end of the scans) is recorded as “similar”.
